US12268661B2, “Methods of treating ascites” (Martin Pharmaceuticals, Inc., priority 2019, dated 2025)
Like-named read-outs stand apart in the source and are kept apart here. One block for each compound: values may come before it.

Assays:
[1] = test system: cirrhotic patients with refractory ascites; assay: Open-label, single-arm clinical study of docarpamine in cirrhotic subjects with refractory ascites; format: in vivo, human
Procedure: An open-label, single-arm study in which each subject serves as his/her own control is conducted. The study assesses the effect of DCP treatment on ascites formation in cirrhotic subjects with RA, by examining the frequency of LVP and the volume of ascitic fluid drained. All subjects participate in a 90-day open-label treatment period. […] Ascites history (relevant medications, LVP dates, and volume of drained fluid) for the 90 days prior to treatment and the 90 days after treatment are collected and used for comparison with on-treatment frequency and volume. The study population consists of cirrhotic patients between 18 and 70 years of age, inclusive, with refractory ascites, subject to the following inclusion and exclusion criteria. • Patients 18 years to 70 years of age. • Documented cirrhosis of the liver. • Refractory ascites, defined as ascites not manageable with diuretics and diet restriction, managed with periodic large volume therapeutic paracentesis. • Patients must have therapeutic […] 3 days prior to enrollment and a documented minimum of 3 additional therapeutic […] 90 days prior to enrollment, with at least 1 every 30 days. • Outpatient, with expected survival of at least 6 months. • Willing and able to complete an informed consent form. […] Results

RA patients = conditions: small cohort of RA patients (Funasaki 1999); cited from earlier work
[2] = Dopamine levels after oral administration of docarpamine in non-Asian versus Asian populations; format: in vivo, human; conditions: non-Asian (especially Caucasian) compared to Asian (especially Japanese) populations
patients with RA = conditions: cited from earlier work
[3] = test system: dopamine receptors, beta1 adrenoceptors, alpha-adrenoceptors; conditions: cited from earlier work
[4] = oral administration, high rates of metabolism in gut/small intestine and liver, cited from earlier work
[5] = dopamine 2 ug/kg/min, patients with RA (Lin 1998)

variability in the resulting dopamine levels [2]: high degree of variability
Structure (SMILES): CCOC(=O)Oc1ccc(CCNC(=O)[C@H](CCSC)NC(C)=O)cc1OC(=O)OCC [docarpamine]
dose groups in which effects are observed ([1]; 750 mg 3 times per day (2250 mg) versus 1500 mg 3 times per day (4500 mg), 90 days): only in the high dose (4500 mg per day group) | time without requiring LVP ([1]; 1500 mg 3 times per day (4500 mg per day), 90 days treatment): Some patients do not require LVP for more than one month and others do not require LVP for more than two months | renin and/or aldosterone levels ([1]; 4500 mg per day group, 90 days): reduced, in some cases to normal, in many patients | sodium excretion and other markers of renal function ([1]; 4500 mg per day group, 90 days): Increased sodium excretion and other markers of improved renal function respond positively | frequency of LVP and/or volume of ascites removed over 90 days ([1]; 4500 mg per day group, 90 days, versus own history): reduced by more than half on average | urinary output ([1]; 4500 mg per day group, most patients, from 500-1000 ml before, 'or more'): 1500 to 2000 mL | response (need for LVP) ([1]; some patients, 2250 mg per day in combination with diuretics (furosemide and/or spironolactone)): enhanced response (decreased need for LVP) | efficacy in refractory ascites (RA patients): effective

Structure (SMILES): Oc1ccc(C2CNCCc3c2cc(O)c(O)c3Cl)cc1 (centres unmarked) [fenoldopam]
urine volume or urine sodium (patients with RA; Hadengue 1991): failed to increase

Structure (SMILES): NCCc1ccc(O)c(O)c1 [dopamine]
effect at low rates of infusion ([3]; 0.5-2 mcg/kg/min, renal, mesenteric, coronary, intracerebral vascular beds): vasodilation | effect at intermediate rates of infusion ([3]; 2-10 mcg/kg/min, beta1 adrenoceptor stimulation): improved myocardial contractility, increased sino-atrial rate and enhanced impulse conduction in the heart | effect at higher rates of infusion ([3]; 10-20 mcg/kg/min, alpha-adrenoceptors): vasoconstrictor effects and a rise in blood pressure | effect at very high rates of infusion ([3]; above 20 mcg/kg/min, alpha-adrenoceptor stimulation predominates): reversing renal dilation and natriuresis | effect when administered intravenously ([3]; intravenous): natriuretic and positive inotropic effects | oral bioavailability [4]: not orally bioavailable | oral bioavailability ([4]; listed as Dopamine): not bioavailable when administered orally | GFR (patients with RA; dopamine 1.5 ug/kg/min (Bacq 1991)): did not enhance | urine volume and GFR (patients with RA; dopamine 2 ug/kg/min (Espiritu 1972)): non-significant increases | changes of blood urea nitrogen, creatinine, creatinine clearance, blood pressure, pulse rate, serum sodium, serum aldosterone and GFR (patients with RA; [5]): no difference | effective renal plasma flow (patients with RA; [5]): Positive effects | GFR (patients with RA; dopamine 200 ug/min): did not significantly change | urine volume, urine sodium or GFR (patients with RA; dopamine 1.3-3 ug/kg/min (Barnardo 1970)): did not change
